Results reported in US11098057B2, “9,10,11,12-tetrahydro-8H-[1,4]diazepino[5′,6′:4,5]thieno[3,2-F]quinolin-8-one compounds and uses thereof” (Celgene CAR LLC, priority 2017, dated 2021).

Tested on: phosphorylation of Hsp27 (Ser78) in Thp-1 human acute monocytic leukemia cells
Experiment: MK2 cellular assay, detection of total and phospho-Hsp27 (Serine 78) by MSD ELISA (Thp1)
Format: cell-based
Details: Thp-1 cells, 1 hour compound, then 50 ng/mL LPS for 45 minutes, read-out: pHSP27 signaling EC50
Experimental: MK2 Cellular Assay—Detection of Total and Phospho-Hsp27 (Serine 78) by MSD ELISA (Thp1)
Compounds of the invention can be assayed in Thp-1 human acute monocytic leukemia cells to measure inhibition of MK2 activity according to procedures detailed in the '463 application.
Specifically, Thp-1 cells were grown in culture medium containing RPMI/10% FBS (fetal bovine serum)/0.05 mM 2-mercaptoethanol. 72 hours prior to the assay, 8×10^4 cells per well were plated in a 96 well flat bottom plate along with 10 ng/mL phorbol 12-myristate 13-acetate (PMA). Cells were cultured in an incubator at 37° C. until needed for the assay. Cell plate media was replaced with culture media just prior to assay while compound dilutions were being made.
Stock solutions of test compound, 1 mM in DMSO, were prepared. […]
The MULTI-SPOT Phospho(Ser78)/Total HSP27 ELISA Assay kit was purchased from Meso Scale […] (MSD; catalog #K15128D). […] 150 μl/well 1×MSD read buffer was added (4× read buffer supplied with kit) and the plate was analyzed on the MSD SECTOR®Imager for analysis. The SECTOR®Imager measures intensity of emitted light to provide a quantitative measure of phosphorylated HSP27 (Ser78) and total HSP27 present in the sample. The relative percent phosphoprotein in a sample is calculated by dividing the Phospho-HSP27 signal intensity over the total HSP27 signal intensity measured in each well.

## CCOCc1cnc(Cl)nc1Oc1ccc2c(ccc3sc4c(c32)NC[C@H](C)NC4=O)n1 [Compound I-82]
  EC50: 101 to 500 nM
